Source: ChEMBL document CHEMBL5113438, “Discovery of highly potent and selective CRBN-recruiting EGFRL858R/T790M degraders in vivo” (Eur J Med Chem, 2022)
Activity calls are given as the source filed them. No cut-off for these calls is given here.

Assays:
NCI-H1299 [1] = assay: Induction of apoptosis in human NCI-H1299 cells assessed as necrotic cells at 0.1 uM incubated for 48 hrs by AnnexinV-FITC/propidium iodide staining based flow cytometry analysis (reference value: 0.24 % ); assay type: functional
[2] = Plasma protein binding in rat assessed as unbound fraction at 1 uM incubated for 4 hrs by rapid equilibrium dialysis method; assay type: ADME, cell-free; details: read-out: PPB (converted)
[3] = system: Epidermal growth factor receptor (Homo sapiens), P00533 [L858R,T790M]; assay: Inhibition of EGFR L858R/T790M mutant phosphorylation in human NCI-H1975 cells preincubated under serum starvation for 8 hrs followed by compound addition measured after 48 hrs by Western blot analysis; assay type: cell-based; details: dose 10-1000 nM, DDE = dose-dependent effect
NCI-H1299 [4] = assay: Induction of apoptosis in human NCI-H1299 cells assessed as necrotic cells at 1.0 uM incubated for 48 hrs by AnnexinV-FITC/propidium iodide staining based flow cytometry analysis (reference value: 0.24 % ); assay type: functional
[5] = Toxicity in BALB/c mouse xenografted with human NCI-H1975 cells assessed as drug tolerability at 10 mg/kg, ip administered once daily for 24 days; assay type: organism-based; details: in vivo, 576 h, time 24 day
NCI-H1299 [6] = assay: Induction of apoptosis in human NCI-H1299 cells assessed as late apoptotic cells at 1.0 uM incubated for 48 hrs by AnnexinV-FITC/propidium iodide staining based flow cytometry analysis (reference value: 1.53 % ); assay type: functional
[7] = Cmax in Sprague-Dawley rat at 10 mg/kg, ip measured upto 24 hrs by LC-MS/MS analysis; assay type: ADME, organism-based; design: time < 24 hrs, dose 10 mg/kg, route ip; details: in vivo
[8] = Selectivity ratio IC50 for human NCI-H1299 cells expressing wild type EGFR to human NCI-H1975 cells expressing EGFR L858R/T790M; assay type: functional
HEK-293T = assay: Cytotoxicity activity against HEK293T cells upto 300 uM incubated for 72 hrs by CCK-8 assay; assay type: toxicity, cell-based; details: human
NCI-H1299 [9] = assay: Induction of apoptosis in human NCI-H1299 cells assessed as viable cells at 0.1 uM incubated for 48 hrs by AnnexinV-FITC/propidium iodide staining based flow cytometry analysis (reference value: 98.05 % ); assay type: functional; details: read-out: Activity
[10] = AUC (0 to infinity) in Sprague-Dawley rat at 10 mg/kg, ip measured upto 24 hrs by LC-MS/MS analysis; assay type: ADME, organism-based; design: time < 24 hrs, dose 10 mg/kg, route ip; details: in vivo
NCI-H1975 [11] = assay: Induction of apoptosis in human NCI-H1975 cells assessed as necrotic cells at 1.0 uM incubated for 48 hrs by AnnexinV-FITC/propidium iodide staining based flow cytometry analysis (reference value: 3.28 % ); assay type: functional
[12] = Volume of distribution at steady state in Sprague-Dawley rat at 1 mg/kg, iv measured upto 24 hrs by LC-MS/MS analysis; assay type: ADME, organism-based; details: in vivo, read-out: Vdss
NCI-H1975 [13] = assay: Induction of apoptosis in human NCI-H1975 cells assessed as late apoptotic cells at 0.1 uM incubated for 48 hrs by AnnexinV-FITC/propidium iodide staining based flow cytometry analysis (reference value: 1.35 % ); assay type: functional
NCI-H1299 [14] = assay: Induction of apoptosis in human NCI-H1299 cells assessed as late apoptotic cells at 0.1 uM incubated for 48 hrs by AnnexinV-FITC/propidium iodide staining based flow cytometry analysis (reference value: 1.53 % ); assay type: functional
NCI-H1975 [15] = assay: Inhibition of ERK phosphorylation in human NCI-H1975 cells preincubated under serum starvation for 8 hrs followed by compound addition measured after 48 hrs by Western blot analysis; assay type: cell-based; details: dose 10-1000 nM, DDE = dose-dependent effect
[16] = Toxicity in BALB/c mouse xenografted with human NCI-H1299 cells assessed as change in body weight pretreated with compound at 10 mg/kg, ip administered once daily for 24 days and measured every 3 days […]; assay type: organism-based; details: in vivo, 576 h, time 24 day
[17] = Half life in Sprague-Dawley rat at 10 mg/kg, ip measured upto 24 hrs by LC-MS/MS analysis; assay type: ADME, organism-based; details: in vivo
HCC827 = assay: Antiproliferative activity against human NCI-HCC827 cells expressing EGFR del19 incubated for 72 hrs by CCK-8 assay; assay type: functional, cell-based; details: HCC827, 72 h
[18] = Tmax in Sprague-Dawley rat at 10 mg/kg, ip measured upto 24 hrs by LC-MS/MS analysis; assay type: ADME, organism-based; details: in vivo
NCI-H1299 [19] = assay: Induction of apoptosis in human NCI-H1299 cells assessed as viable cells at 1.0 uM incubated for 48 hrs by AnnexinV-FITC/propidium iodide staining based flow cytometry analysis (reference value: 98.05 % ); assay type: functional; details: read-out: Activity
[20] = system: Epidermal growth factor receptor (Homo sapiens), P00533 [L858R,T790M]; assay: Inhibition of EGFR L858R/T790M mutant phosphorylation in human NCI-H1975 cells at 1 uM measured after 48 hrs by Western blot assay; assay type: cell-based
NCI-H1975 [21] = assay: Induction of apoptosis in human NCI-H1975 cells assessed as viable cells at 1.0 uM incubated for 48 hrs by AnnexinV-FITC/propidium iodide staining based flow cytometry analysis (reference value: 96.2 % ); assay type: functional; details: read-out: Activity
NCI-H1299 [22] = assay: Induction of apoptosis in human NCI-H1299 cells assessed as early apoptotic cells at 1.0 uM incubated for 48 hrs by AnnexinV-FITC/propidium iodide staining based flow cytometry analysis (reference value: 0.11 % ); assay type: functional
A549 = assay: Antiproliferative activity against human A549 cells expressing wild type EGFR incubated for 72 hrs by CCK-8 assay; assay type: functional, cell-based; details: A549, 72 h
[23] = Toxicity in BALB/c mouse xenografted with human NCI-H1975 cells assessed as change in body weight pretreated with compound at 10 mg/kg, ip administered once daily for 24 days and measured every 3 days […]; assay type: organism-based; details: in vivo, 576 h, time 24 day
NCI-H1975 [24] = assay: Induction of apoptosis in human NCI-H1975 cells assessed as late apoptotic cells at 1.0 uM incubated for 48 hrs by AnnexinV-FITC/propidium iodide staining based flow cytometry analysis (reference value: 1.35 % ); assay type: functional
NCI-H1299 [25] = assay: Induction of apoptosis in human NCI-H1299 cells assessed as early apoptotic cells at 0.1 uM incubated for 48 hrs by AnnexinV-FITC/propidium iodide staining based flow cytometry analysis (reference value: 0.11 % ); assay type: functional
[26] = Half life in Sprague-Dawley rat at 1 mg/kg, iv measured upto 24 hrs by LC-MS/MS analysis; assay type: ADME, organism-based; details: in vivo
[27] = system: Epidermal growth factor receptor (Homo sapiens), P00533 [L858R,T790M]; assay: Inhibition of EGFR L858R/T790M mutant phosphorylation in human NCI-H1975 cells at 1 uM measured after 8 hrs by Western blot assay; assay type: cell-based
[28] = AUC (0 to infinity) in Sprague-Dawley rat at 1 mg/kg, iv measured upto 24 hrs by LC-MS/MS analysis; assay type: ADME, organism-based; design: dose 1 mg/kg, time < 24 hrs, route iv; details: in vivo
NCI-H1975 [29] = assay: Induction of cell cycle arrest in human NCI-H1975 cells assessed as accumulation of cells in G2/M phase by PI staining based flow cytometry method; assay type: functional; details: dose 0.1-1 µM, DDE = dose-dependent effect
[30] = target: Serine/threonine-protein kinase AKT (Homo sapiens) (UniProt P31751+Q9Y243+P31749); assay: Inhibition of Akt phosphorylation in human NCI-H1975 cells preincubated under serum starvation for 8 hrs followed by compound addition measured after 48 hrs by Western blot analysis; assay type: cell-based; details: dose 10-1000 nM, DDE = dose-dependent effect
Serine/threonine-protein kinase AKT (Homo sapiens), sequence (P31749 whole entry, looked up): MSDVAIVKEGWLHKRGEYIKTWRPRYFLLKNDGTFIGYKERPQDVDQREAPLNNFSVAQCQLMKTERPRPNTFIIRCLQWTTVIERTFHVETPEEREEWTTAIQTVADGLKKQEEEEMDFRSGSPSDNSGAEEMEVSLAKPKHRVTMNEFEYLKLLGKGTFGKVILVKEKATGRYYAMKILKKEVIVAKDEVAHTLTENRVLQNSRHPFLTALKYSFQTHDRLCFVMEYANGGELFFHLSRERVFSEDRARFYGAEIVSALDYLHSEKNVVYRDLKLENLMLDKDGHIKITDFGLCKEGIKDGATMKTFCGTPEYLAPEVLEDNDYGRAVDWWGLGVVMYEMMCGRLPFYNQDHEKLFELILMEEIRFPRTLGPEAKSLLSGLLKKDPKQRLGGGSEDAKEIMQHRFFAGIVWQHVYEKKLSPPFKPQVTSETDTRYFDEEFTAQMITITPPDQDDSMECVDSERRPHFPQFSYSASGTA
Serine/threonine-protein kinase AKT (Homo sapiens), sequence (P31751 whole entry, looked up): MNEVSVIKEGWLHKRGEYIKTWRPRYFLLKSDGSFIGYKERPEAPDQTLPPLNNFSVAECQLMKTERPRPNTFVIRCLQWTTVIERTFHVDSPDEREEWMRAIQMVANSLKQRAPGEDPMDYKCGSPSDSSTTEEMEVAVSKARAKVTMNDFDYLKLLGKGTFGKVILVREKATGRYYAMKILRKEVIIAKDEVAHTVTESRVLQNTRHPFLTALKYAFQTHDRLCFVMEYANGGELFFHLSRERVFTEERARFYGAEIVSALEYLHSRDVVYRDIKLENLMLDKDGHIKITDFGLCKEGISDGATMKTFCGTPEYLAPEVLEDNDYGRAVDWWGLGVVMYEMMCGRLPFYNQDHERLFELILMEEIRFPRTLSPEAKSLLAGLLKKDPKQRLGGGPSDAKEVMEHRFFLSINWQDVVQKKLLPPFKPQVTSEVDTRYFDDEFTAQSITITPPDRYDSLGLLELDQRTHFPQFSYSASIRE
Serine/threonine-protein kinase AKT (Homo sapiens), sequence (Q9Y243 whole entry, looked up): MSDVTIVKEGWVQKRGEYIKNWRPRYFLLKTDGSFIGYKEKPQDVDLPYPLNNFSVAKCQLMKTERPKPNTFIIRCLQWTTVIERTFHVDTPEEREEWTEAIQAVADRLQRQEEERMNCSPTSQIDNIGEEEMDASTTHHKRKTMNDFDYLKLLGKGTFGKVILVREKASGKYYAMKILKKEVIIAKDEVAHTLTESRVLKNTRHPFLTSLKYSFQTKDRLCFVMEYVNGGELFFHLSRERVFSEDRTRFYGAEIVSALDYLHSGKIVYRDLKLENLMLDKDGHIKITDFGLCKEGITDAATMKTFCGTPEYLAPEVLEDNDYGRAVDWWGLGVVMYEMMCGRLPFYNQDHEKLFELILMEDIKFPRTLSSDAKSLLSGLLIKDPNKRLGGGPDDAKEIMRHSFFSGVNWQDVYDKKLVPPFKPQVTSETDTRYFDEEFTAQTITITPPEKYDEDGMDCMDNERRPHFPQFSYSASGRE

[31] = AUC (0 to t) in Sprague-Dawley rat at 1 mg/kg, iv measured upto 24 hrs by LC-MS/MS analysis; assay type: ADME, organism-based; design: time < 24 hrs, dose 1 mg/kg, route iv; details: in vivo

Structure (SMILES) | Activity (NCI-H1299 [1]) | fraction unbound at 4 h, 1 µM [2] | inhibition [3] | Activity (NCI-H1299 [4]) | Activity [5] | Activity (NCI-H1299 [6]) | Cmax [7] | Ratio IC50 [8] | Activity (HEK-293T) | viability at 0.1 µM (NCI-H1299 [9]) | AUC(0-inf) [10] | Activity (NCI-H1975 [11]) | Vd [12] | Activity (NCI-H1975 [13]) | Activity (NCI-H1299 [14]) | inhibition (NCI-H1975 [15]) | Activity [16] | half-life [17] | IC50 (HCC827) | Tmax [18] | also measured
C#CCN(CCC(=O)Nc1cccc2c1CN(C1CCC(=O)NC1=O)C2=O)CCN(C)c1cc(OC)c(Nc2nccc(-c3cn(C)c4ccccc34)n2)cc1NC(=O)C=C (stereo not drawn) | 0.39% | 0.001 | Dde | 0.25% | Non-Toxic | 2.15% | 197 ng/mL | 1721 | Non-Toxic | 97.7% | 1610 ng·h/mL | 14.3% | 7.38 L/kg | 6.59% | 1.79% | Dde | Non-Toxic | 130 min | 1210 nM | 4.67 h | viability at 1 µM (NCI-H1299 [19]): 97.5%; inhibition [20]: Active; viability at 1 µM (NCI-H1975 [21]): 50.8%; Activity (NCI-H1299 [22]): 0.08%; IC50 (A549): > 100 µM; Activity [23]: Non-Toxic; Activity (NCI-H1975 [24]): 24.3%; Activity (NCI-H1299 [25]): 0.11%; half-life [26]: 137 min; inhibition (INH) [27]: 58%; AUC(0-inf) ([28]; Sprague-Dawley): 461 ng·h/mL; Activity (NCI-H1975 [29]): Dde; inhibition [30]: Dde; AUC(0-t) at 24 h [31]: 460 ng·h/mL
C#CCN(CCCC(=O)Nc1cccc2c1CN(C1CCC(=O)NC1=O)C2=O)CCN(C)c1cc(OC)c(Nc2nccc(-c3cn(C)c4ccccc34)n2)cc1NC(=O)C=C (stereo not drawn) | 0.48% | 0.002 | Dde | 0.37% | Non-Toxic | 0.37% | 128 ng/mL | 2137 | Non-Toxic | 98% | 973 ng·h/mL | 15.2% | 7.87 L/kg | 4.8% | 1.27% | Dde | Non-Toxic | 111 min | 1120 nM | 4.5 h | viability at 1 µM (NCI-H1299 [19]): 97.8%; inhibition [20]: Active; viability at 1 µM (NCI-H1975 [21]): 69%; Activity (NCI-H1299 [22]): 0.082%; IC50 (A549): > 100 µM; Activity [23]: Non-Toxic; Activity (NCI-H1975 [24]): 25.1%; Activity (NCI-H1299 [25]): 0.22%; half-life [26]: 158 min; inhibition (INH) [27]: 56%; AUC ([28]; 24 h): 973 ng·h/mL; Activity (NCI-H1975 [29]): Dde; inhibition [30]: Dde; AUC(0-t) at 24 h [31]: 483 ng·h/mL
